Data from paper PMC10451034, “Highly Efficient Photosensitizers with Molecular Vibrational Torsion for Cancer Photodynamic Therapy” (ACS Central Science, 2023).

Key:
HepG2 cells = experiment: Lactate dehydrogenase (LDH) release into cell culture medium; assay type: cell-based, human; conditions: under irradiation
Experimental: Next, in order to verify the disruption effect on cell structural integrity of the ^1O2 generation by QTCy7-R under irradiation, JC-1 staining imaging was conducted to monitor the mitochondria membrane potential. […] On the other hand, cell membrane damage caused by the photooxidation of QTCy7-Ac and QTCy7-CHO could be confirmed by a visualized observation. […] Furthermore, the lactate dehydrogenase (LDH) content in cell culture medium was measured to characterize the extent of cell membrane damage.[49]
QTCy7-Ph, (e) QTCy7-Ac, (f) QTCy7-CHO, (g) TCy7 and (h) MB under 660 nm irradiation (4 mW/cm2) in PBS. (i) The relative singlet oxygen yield of different compounds in PBS.
Figure S19. (a) The cellular uptake of QTCy7-R in HepG2 cells (QTCy7-Me/QTCy7-Ph: λex = 640 […]
μm). (b) The fluorescence intensity of QTCy7-R in cell at different time. (c) The LDH release rate of cells under different treatment conditions.
Figure S20. The enlarged images of (a) QTCy7-Ac and (b) QTCy7-CHO caused cell membrane destruction at 0 min and 4 min. Yellow arrows indicate the formation of distinct bubble-like structures on cell membrane. (λex = 640 nm, λem = 650-750 nm, scale bars: 20 μm). […]

[1] = test system: 4T1 subcutaneous solid tumor; experiment: Tumor suppression (PDT) in 4T1-subcutaneous tumor model; assay type: in vivo, BALB/c mice; conditions: for tumor volume increase: no irradiation
Experimental: In view of the observation that the fluorescence intensity of QTCy7-Ac in the tumor site peaked around 2–2.5 h after intravenous injection, this period was chosen as the PDT time window. […] Even so, this approach achieved partial tumor suppression; the tumor volume was 1-fold compared with the initial situation. […] After PDT treatment, the tumor kept shrinking in size (Figure S22a), which achieved a tumor suppression rate of nearly 95% (Figure S22b). Nevertheless, the tumors in PBS groups increased quickly with a 6-fold increment compared with the initial volume whether exposed to irradiation or not, which ruled out the influence of light on tumor growth. In addition, there was virtually no difference between the intratumoral and intravenous injection groups treated with QTCy7-Ac, with tumor volumes increasing by 6-fold and 7-fold, respectively, which excluded the cytotoxicity of the dye alone. […]
of major organs, the mice L) was intravenously injected with QTCy7-Ac (200 μM, 100 μL) 2 hours in advance were killed and the main organs and tumors were removed for […]
Tumor suppression experiments of 4T1-subcutaneous tumor model
To confirm the in vivo PDT efficacy of QTCy7-Ac, all the BALB/c mice were divided into 6 groups: 1) saline injection; 2) saline injection with 660 nm irradiation (100 mW/cm2, 15 min); 3) QTCy7-Ac (200 μM, 100 μL) intratumoral injection; 4) QTCy7-Ac (200 μM, 100 μL) intratumoral injection with 660 nm irradiation (100 mW/cm2, 15 min); 5) QTCy7-Ac (200 μM, 100 μL) intravenous injection; 6) QTCy7-Ac (200 μM, 100 μL) intravenous injection with 660 nm irradiation (100 mW/cm2, 15 min); When the volume of subcutaneous tumors reached about 100 mm 3, mice were injected with PBS or QTCy7-Ac, respectively. After 2 h post-injection, tumor region was irradiated with […] light. In the following half month, the tumor volume of all the mice was measured every two days by a vernier caliper. The volume of tumors was calculated by the following formula: […]
Where “V” represent the tumor volume, “a” represent greatest longitudinal diameter (length) and “b” represent the greatest transverse diameter (width).
The in vivo biocompatibility was evaluated by using measurement mice body weight and H&E slice histological analysis. After the PDT treatment, the mice were euthanized, and main organs including heart, liver, spleen, lung, kidneys and tumors were harvested for histological analysis by means of hematoxylin-eosin (H&E) staining.
Data were expressed as mean ± standard deviation. Student's t test was used to evaluate the statistical significance. P values < 0.05 were regarded statistically

CCOC(=O)C1=C/C(=C\C=C2/Sc3ccccc3N2CC)C(=O)C(/C=C/c2sc3ccccc3[n+]2CC)=C1 [QTCy7-Ac]
LDH release rate (HepG2 cells): about 70%
H&E staining of tumor tissue ([1]; QTCy7-Ac-mediated PDT): Conspicuous morphological damage
tumor volume compared with initial ([1]; intratumoral injection + 660 nm, 100 mW/cm^2, 15 min): 1 fold
tumor volume increase ([1]; intratumoral injection): 6 fold
tumor suppression rate ([1]; intravenous injection + 660 nm, 100 mW/cm^2, 15 min): ~95%
tumor volume increase ([1]; intravenous injection): 7 fold
